In US8268861B2, “P2X7R antagonists and their use” (Affectis Pharmaceuticals AG, priority 2009, dated 2012) one finds IC50 and IL-1beta secretion data, which are given here for one molecule.

One assay has as its target T1, human P2X7R (Homo sapiens, UniProt Q99572).
T1 construct: expressed in transfected cells
T1 sequence (Q99572 1-595): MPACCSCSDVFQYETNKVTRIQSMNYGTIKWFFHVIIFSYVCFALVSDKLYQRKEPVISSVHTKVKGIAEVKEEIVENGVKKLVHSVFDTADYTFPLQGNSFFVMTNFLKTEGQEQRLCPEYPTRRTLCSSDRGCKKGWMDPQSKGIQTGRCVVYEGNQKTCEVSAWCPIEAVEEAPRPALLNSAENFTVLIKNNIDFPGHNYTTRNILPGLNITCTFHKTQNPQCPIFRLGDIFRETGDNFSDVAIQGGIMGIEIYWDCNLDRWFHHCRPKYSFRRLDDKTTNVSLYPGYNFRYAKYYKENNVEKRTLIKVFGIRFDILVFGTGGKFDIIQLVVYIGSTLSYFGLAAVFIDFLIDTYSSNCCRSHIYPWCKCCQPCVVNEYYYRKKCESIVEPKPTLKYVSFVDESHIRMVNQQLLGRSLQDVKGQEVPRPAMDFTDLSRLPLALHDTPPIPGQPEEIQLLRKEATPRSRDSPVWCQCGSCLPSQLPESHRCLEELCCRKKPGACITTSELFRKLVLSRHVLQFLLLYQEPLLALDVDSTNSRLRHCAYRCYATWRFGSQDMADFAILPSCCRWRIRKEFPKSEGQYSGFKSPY
The assay can be described thus: Inhibition of Bz-ATP-stimulated calcium influx in Hek293 cells stably transfected with human P2X7R (Fluo-4-AM). The following applies: Hek293 cells expressing human P2X7R, 100 μM Bz-ATP, 15 minute incubation with test compound. The format is cell-based. As for the experimental part: Inhibition of P2X7R activity by the compounds of the present invention is assessed by measuring calcium influx in Hek293 cells (ECACC No. 85120602) which have been stably transfected with a cDNA for the human P2X7R.
Hek293 cells expressing P2X7R were generated by lipofectamine transfection of the human P2X7R cDNA (Genbank accession number BC011913) under the control of the human cytomegalovirus immediate-early (CMV) promoter and inserted into the pcDNA3.1 vector (Invitrogen). […]
Inhibition of Bz-ATP-stimulated P2X7R by test compounds was monitored by measuring changes in calcium influx using the Fluo-4-AM fluorescent dye according to the manufacturer's recommendations (Molecular Devices Corporation, U.S.A.). […] After a 15 minute incubation, 100 μM Bz-ATP was added and fluorescence was measured in a FlexStation II (Molecular Devices, U.S.A.) according to the following parameters: 485 nm Excitation Wavelength; 525 nm Emission Wavelength; 515 nm Emission Cut-off; 100 μl Pipette Height; 25 μl Transfer Volume; 5 fold Compound Concentration; 3 rate Addition Speed. […] The fluorescence data were processed using a lag time of 15 seconds, recording 45 seconds, zero baseline calibrated using 2 points, and % baseline multiplier set at 3. […]

Another assay concerns IL-1 beta secretion. The assay can be described thus: IL-1 beta secretion by LPS/BzATP-stimulated isolated human monocytes (macrophages), ELISA. The format is cell-based. Particulars: 1 μg/mL LPS 2 hours, 100 μM BzATP 30 minutes, compound added 5 minutes before BzATP, FIG. 1, p<0.01. As for the experimental part:
The effects of compounds of the present invention on IL-1 beta secretion is assessed using isolated human monocytes.
Briefly, human monocytes were purified from human blood by Ficoll-Paque from Buffy coats as follows. The Buffy coat is a greyish white layer of white blood cells and platelets that accumulates on the surface of sedimented erythrocytes when blood is allowed to stand or is centrifuged. Each Buffy coat (one per donor) was diluted with PBS and 20 ml added on top of 15 ml of Ficoll-Paque. The gradient was centrifuged at 900 g for 20 min at room temperature. […] At day 5, the cells were counted, resuspended in RPMI 1640 supplemented with 5% human serum at a concentration of 1×10^6/ml and plated onto a 24 wells plate (5×10^5 cells/well). […]
The day of experiment, the macrophages were pre-stimulated for 2 hours with 1 μg/mL LPS at 37° C. […] After incubation, the supernatants were collected by centrifugation (250 g for 5 minutes) and IL-1β secretion was measured by using the human IL-1 beta/IL-1F2 Quantikine ELISA Kit following manufacturer's instructions. […] The O.D. at 450 nm was measured for each data points and the IL-1β concentration calculated based on a standard curve. The […] concentration was further calculated to have a concentration in pg/mL/10E+6 cells, together with its standard deviation.
In general terms: An ELISA detects its analyte on a solid surface through an enzyme-linked reagent.

Each structure is given as a SMILES string.

By IC50 is commonly meant the point on the concentration scale where inhibition reaches its midpoint. Consider `O=C(CC1CCCCCC1)Nc1cn(CCO)c2cccc(Cl)c12` [Example 2, N-(4-chloro-1-(2-hydroxyethyl)-1H-indol-3-yl)-2-cycloheptylacetamide], for which the IC50 at human P2X7R is approximately 3.8 nM. Besides, the IL-1beta secretion entry in the assay on IL-1 beta secretion is listed as “reduced IL-1beta secretion”.
